Source: BindingDB's records for doi:10.1016/j.bmcl.2004.04.008 (Fudan University, 2004)

Assays:
[1] = Concentration required to protect the cell against HIV-1 strain IIIB viral cytopathogenicity by 50% in MT-4 cells
[2] = Inhibitory concentration against SO561945 (HIV 1 mutant RT) viral infection of MT-4 cells
[3] = as above; remark: listed apart in the source

| Compound | IC50 [1] [nM] | IC50 [2] [nM] | IC50 [3] [nM] |
| --- | --- | --- | --- |
| Cc1c(Sc2ccccc2)n(COCCO)c(=O)[nH]c1=O | 5060 | > 405000 | – |
| COc1ccc(C(=O)CSc2nc(Cc3cccc4ccccc34)c(C)c(=O)[nH]2)cc1 | – | – | 370 |
| CCc1c(Cc2cccc3ccccc23)nc(SCC(=O)c2ccc(F)cc2)[nH]c1=O | 78 | 24200 | – |
| COC(=O)CSc1nc(Cc2cccc3ccccc23)c(C(C)C)c(=O)[nH]1 | 4490 | > 179000 | – |
| CCc1c(Cc2cccc3ccccc23)nc(SCC(=O)c2ccc(C)cc2)[nH]c1=O | – | – | 320 |
| CC(=O)CSc1nc(Cc2cccc3ccccc23)c(C(C)C)c(=O)[nH]1 | 410 | > 43100 | – |
| CCc1c(Cc2cccc3ccccc23)nc(SCC(=O)c2ccc(OC)cc2)[nH]c1=O | – | > 178000 | 45 |
| COc1ccc(C(=O)CSc2nc(Cc3cccc4ccccc34)c(C(C)C)c(=O)[nH]2)cc1 | 30 | 5820 | – |
| CCc1c(Cc2cccc3ccccc23)nc(SCC(=O)c2ccc(Cl)cc2)[nH]c1=O | 260 | > 56000 | – |
| CCOC(=O)CSc1nc(Cc2cccc3ccccc23)c(C)c(=O)[nH]1 | – | – | 7000 |
| COC(=O)CSc1nc(Cc2cccc3ccccc23)c(C)c(=O)[nH]1 | – | – | 6990 |
| CCOC(=O)CSc1nc(Cc2cccc3ccccc23)c(C(C)C)c(=O)[nH]1 | – | > 175000 | 1410 |
| Cc1ccc(C(=O)CSc2nc(Cc3cccc4ccccc34)c(C)c(=O)[nH]2)cc1 | – | – | 670 |
| Cc1c(Cc2cccc3ccccc23)nc(SCC(=O)c2ccc(F)cc2)[nH]c1=O | – | – | 180 |
| CC(C)c1c(Cc2cccc3ccccc23)nc(SCC(=O)c2ccc(F)cc2)[nH]c1=O | 78 | 188000 | – |
| CC(C)c1c(Cc2cccc3ccccc23)nc(SCC(=O)c2ccc(Cl)cc2)[nH]c1=O | 320 | – | > 270000 |
| Cc1c(Cc2cccc3ccccc23)nc(SCC(=O)c2ccc(Cl)cc2)[nH]c1=O | – | – | 550 |
| Cc1ccc(C(=O)CSc2nc(Cc3cccc4ccccc34)c(C(C)C)c(=O)[nH]2)c(C)c1 | – | 2670 | 240 |
| CC(C)c1c(Cc2cccc3ccccc23)nc(SCC(=O)c2ccccc2)[nH]c1=O | 46 | 19600 | – |
| CCc1c(Cc2cccc3ccccc23)nc(SCC(=O)OC)[nH]c1=O | – | – | 4720 |
| CC(=O)CSc1nc(Cc2cccc3ccccc23)c(C)c(=O)[nH]1 | – | – | 1120 |
| Cc1ccc(C(=O)CSc2nc(Cc3cccc4ccccc34)c(C(C)C)c(=O)[nH]2)cc1 | – | – | 240 |
| O=c1[nH]cnc2c1ncn2[C@H]1CC[C@@H](CO)O1 [BMY-40900] | 5370 | 7150 | – |
